Drawing on ChEMBL document CHEMBL1144124, “New cytotoxic 1-azaanthraquinones and 3-aminonaphthoquinone from the stem bark of Goniothalamus marcanii” (1999), this text covers EC50 for six molecules.

What all share (format): functional
The test system of one assay is MCF7. The experiment in a line: Cytotoxicity against human MCF7 cells after 48 hrs by SRB assay. The following applies: MCF7, 48 h, read-out: ED50 (the source's name).
The nature of assay [1]: Cytotoxicity against human RPMI cells after 48 hrs by SRB assay. The following applies: read-out: ED50 (the source's name). On the technique in general: The SRB assay estimates cell density from bound dye.
The test system of a further assay is A549. Kind of assay: Cytotoxicity against human A549 cells after 48 hrs by SRB assay. The following applies: A549, 48 h, read-out: ED50 (the source's name).
A further assay relates to HT-29. The experiment in a line: Cytotoxicity against human HT-29 cells after 48 hrs by SRB assay. The following applies: HT-29, 48 h, read-out: ED50 (the source's name).
The subject of the next assay is U-251. Kind of assay: Cytotoxicity against human U251 cells after 48 hrs by SRB assay. Conditions: U-251, 48 h, read-out: ED50 (the source's name).

On to `COc1c(CO)c2c(n(C)c1=O)C(=O)c1ccccc1C2=O` [MARCANINE C], for which the EC50 in the assay on MCF7 was 1000 nM; in assay [1], 670 nM; with A549, 1000 nM; in the assay on HT-29, 330 nM.

Turning to `COc1c(C)c2c([nH]c1=O)C(=O)c1ccccc1C2=O` [DIELSIQUINONE], the EC50 amounted to 110 nM in the assay on MCF7; 110 nM in assay [1]; 110 nM in the assay on A549; 1120 nM in the assay on HT-29; 370 nM in the assay on U-251.

With `COc1c(C)c2c([nH]c1=O)C(=O)c1cccc(O)c1C2=O` [MARCANINE D], the EC50 in the assay on MCF7 was 80 nM; in assay [1], 80 nM; in the assay on A549 it was 40 nM; with HT-29 it was 350 nM; in the assay on U-251 it was 280 nM.

With `COc1c(C)c2c(n(C)c1=O)C(=O)c1ccccc1C2=O` [MARCANIN B], the EC50 turned out to be 180 nM with MCF7; 700 nM in assay [1]; 350 nM in the assay with A549; 2120 nM with HT-29; 1400 nM in the assay on U-251.

`CC(=O)C1=C(N)C(=O)c2c(O)cccc2C1=O`: the EC50 with MCF7 was determined as 2600 nM; in assay [1] it was 3030 nM; with A549, 2600 nM; in the assay on U-251, 3030 nM.

Turning to `Cc1cc(=O)[nH]c2c1C(=O)c1ccccc1C2=O` [MARCANIN A], the EC50 worked out at 420 nM in the assay on MCF7; 420 nM in assay [1]; 420 nM in the assay with A549; 420 nM with HT-29; 840 nM with U-251.
